Assay: Water sorption test (DVS, hygroscopicity)
Assay type: physicochemical
Conditions: humidity range of 10-90% r.h.
Method: By low hygroscopicity is meant, within the scope of the present invention, that in sorption experiments on the compound of formula (I) a water uptake of less than 1% is observed in the humidity range of 10-90% investigated.
A DVS-1 made by Surface Measurement Systems (=SMS) is used to test the hygroscopic characteristics: the following humidity profiles are used: 10-90% r.h. in 10% steps, recording both a sorption and a desorption profile, typical weights: 10-20 mg

water uptake in sorption experiments: less than 1%
SMILES: COc1cc2ncnc(Nc3cccc(Cl)c3F)c2cc1O[C@H]1CC[C@@]2(CC1)NCCNC2=O.O=C(O)/C=C\C(=O)O.O=C(O)/C=C\C(=O)O [(I), (trans)-9-[4-(3-chloro-2-fluoro-phenylamino)-7-methoxy-quinazolin-6-yloxy]-1,4-diaza-spiro[5.5]undecan-5-one dimaleic acid compound]

Reference: patent publication US8906931B1, “9-[4-(3-chloro-2-fluoro-phenylamino-7-methoxy-quinazoline-6-yloxy]-1,4-diaza-spiro[5.5]undecane-5-one dimaleate, use thereof as a medicament and method for the production thereof” (Boehringer Ingelheim International GmbH, priority 2011, dated 2014)
